# Data from PubChem BioAssay (NCI).
#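 Method: 48-hour compound exposure of cells in 96-well plates, five concentrations, linear interpolation of endpoints. At the GI50, growth is halved. TGI is the concentration that stops growth completely.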
# Legend:
# Experiment in all cases: NCI anticancer screen, dose series, 48 h
# IGROV1 ovarian = tested on: IGROV1 ovarian
# U251 CNS = tested on: U251 CNS
# OVCAR-4 ovarian = tested on: OVCAR-4 ovarian
# COLO 205 colon = tested on: COLO 205 colon
# ACHN renal = tested on: ACHN renal
# SF-539 CNS = tested on: SF-539 CNS
# CAKI-1 renal = tested on: CAKI-1 renal
# NCI-H460 lung = tested on: NCI-H460 lung
# HCC-2998 colon = tested on: HCC-2998 colon
# NCI-H522 lung = tested on: NCI-H522 lung
# UO-31 renal = tested on: UO-31 renal
# T-47D breast = tested on: T-47D breast
# RXF 393 renal = tested on: RXF 393 renal
# MDA-MB-435 = tested on: MDA-MB-435
# 786-0 renal = tested on: 786-0 renal
# UACC-62 melanoma = tested on: UACC-62 melanoma
# SF-268 CNS = tested on: SF-268 CNS
# HCT-15 colon = tested on: HCT-15 colon
# TK-10 renal = tested on: TK-10 renal
# CCRF-CEM leukemia = tested on: CCRF-CEM leukemia
# UACC-257 melanoma = tested on: UACC-257 melanoma
# OVCAR-3 ovarian = tested on: OVCAR-3 ovarian
# SK-MEL-5 melanoma = tested on: SK-MEL-5 melanoma
# NCI/ADR-RES ovarian = tested on: NCI/ADR-RES ovarian
# SK-MEL-28 melanoma = tested on: SK-MEL-28 melanoma
# M14 melanoma = tested on: M14 melanoma
# HL-60(TB) leukemia = tested on: HL-60(TB) leukemia
# OVCAR-8 ovarian = tested on: OVCAR-8 ovarian
# SF-295 CNS = tested on: SF-295 CNS
# SNB-19 CNS = tested on: SNB-19 CNS
# HCT-116 colon = tested on: HCT-116 colon
# BT-549 breast = tested on: BT-549 breast
# HS 578T breast = tested on: HS 578T breast
# NCI-H226 lung = tested on: NCI-H226 lung
# KM12 colon = tested on: KM12 colon
# A549 NSCLC = tested on: A549 NSCLC
# PC-3 prostate = tested on: PC-3 prostate
# MOLT-4 leukemia = tested on: MOLT-4 leukemia
# SW-620 colon = tested on: SW-620 colon
# A498 renal = tested on: A498 renal
# K-562 leukemia = tested on: K-562 leukemia
# HOP-62 NSCLC = tested on: HOP-62 NSCLC
# MALME-3M melanoma = tested on: MALME-3M melanoma
# EKVX NSCLC = tested on: EKVX NSCLC
# SK-OV-3 ovarian = tested on: SK-OV-3 ovarian
# LOX IMVI melanoma = tested on: LOX IMVI melanoma
# MCF7 breast = tested on: MCF7 breast
# HT29 colon = tested on: HT29 colon
# SR leukemia = tested on: SR leukemia
# DU-145 prostate = tested on: DU-145 prostate
# SNB-75 CNS = tested on: SNB-75 CNS
# OVCAR-5 ovarian = tested on: OVCAR-5 ovarian
# RPMI-8226 leukemia = tested on: RPMI-8226 leukemia
# SK-MEL-2 melanoma = tested on: SK-MEL-2 melanoma
# NCI-H23 lung = tested on: NCI-H23 lung
# MDA-MB-231 breast = tested on: MDA-MB-231 breast
# SN12C renal = tested on: SN12C renal
structure (smiles),measurement,setting,value
COc1ccc(CN2CCc3c(Sc4ccccc4)nc(N)nc3C2=O)c(OC)c1,GI50,IGROV1 ovarian,11 µM
same,TGI,IGROV1 ovarian,28.9 µM
same,GI50,U251 CNS,8.01 µM
same,TGI,U251 CNS,27.4 µM
same,GI50,OVCAR-4 ovarian,4.57 µM
same,TGI,OVCAR-4 ovarian,18.3 µM
same,GI50,COLO 205 colon,14.8 µM
same,TGI,COLO 205 colon,47.9 µM
same,GI50,ACHN renal,7.25 µM
same,TGI,ACHN renal,52 µM
same,GI50,SF-539 CNS,14.4 µM
same,TGI,SF-539 CNS,36.8 µM
same,GI50,CAKI-1 renal,3.4 µM
same,TGI,CAKI-1 renal,18.3 µM
same,GI50,NCI-H460 lung,9.06 µM
same,TGI,NCI-H460 lung,> 100 µM
same,GI50,HCC-2998 colon,14.1 µM
same,TGI,HCC-2998 colon,30.4 µM
same,GI50,NCI-H522 lung,3.05 µM
same,TGI,NCI-H522 lung,17.7 µM
same,GI50,UO-31 renal,1.45 µM
same,TGI,UO-31 renal,12.8 µM
same,GI50,T-47D breast,3.99 µM
same,TGI,T-47D breast,34.5 µM
same,GI50,RXF 393 renal,2.65 µM
same,TGI,RXF 393 renal,9.74 µM
same,GI50,MDA-MB-435,3.57 µM
same,TGI,MDA-MB-435,16.3 µM
same,GI50,786-0 renal,7.62 µM
same,TGI,786-0 renal,> 100 µM
same,GI50,UACC-62 melanoma,6.78 µM
same,TGI,UACC-62 melanoma,21.4 µM
same,GI50,SF-268 CNS,6.21 µM
same,TGI,SF-268 CNS,26 µM
same,GI50,HCT-15 colon,8.32 µM
same,TGI,HCT-15 colon,39.2 µM
same,GI50,TK-10 renal,5 µM
same,TGI,TK-10 renal,19.2 µM
same,GI50,CCRF-CEM leukemia,4.53 µM
same,TGI,CCRF-CEM leukemia,52.9 µM
same,GI50,UACC-257 melanoma,5.99 µM
same,TGI,UACC-257 melanoma,22.2 µM
same,GI50,OVCAR-3 ovarian,4.25 µM
same,TGI,OVCAR-3 ovarian,25.7 µM
same,GI50,SK-MEL-5 melanoma,7.35 µM
same,TGI,SK-MEL-5 melanoma,22.5 µM
same,GI50,NCI/ADR-RES ovarian,4.13 µM
same,TGI,NCI/ADR-RES ovarian,29.9 µM
same,GI50,SK-MEL-28 melanoma,8.91 µM
same,TGI,SK-MEL-28 melanoma,26.8 µM
same,GI50,M14 melanoma,9.61 µM
same,TGI,M14 melanoma,28.1 µM
same,GI50,HL-60(TB) leukemia,1.56 µM
same,TGI,HL-60(TB) leukemia,5.32 µM
same,GI50,OVCAR-8 ovarian,6.23 µM
same,TGI,OVCAR-8 ovarian,30.5 µM
same,GI50,SF-295 CNS,8.35 µM
same,TGI,SF-295 CNS,22.7 µM
same,GI50,SNB-19 CNS,15.4 µM
same,TGI,SNB-19 CNS,55.3 µM
same,GI50,HCT-116 colon,3.9 µM
same,TGI,HCT-116 colon,36.6 µM
same,GI50,BT-549 breast,2.3 µM
same,TGI,BT-549 breast,10.1 µM
same,GI50,HS 578T breast,16.3 µM
same,TGI,HS 578T breast,> 100 µM
same,GI50,NCI-H226 lung,8.55 µM
same,TGI,NCI-H226 lung,27.1 µM
same,GI50,KM12 colon,8.67 µM
same,TGI,KM12 colon,32.7 µM
same,GI50,A549 NSCLC,9.49 µM
same,TGI,A549 NSCLC,45.8 µM
same,GI50,PC-3 prostate,4.41 µM
same,TGI,PC-3 prostate,29.1 µM
same,GI50,MOLT-4 leukemia,3 µM
same,TGI,MOLT-4 leukemia,16.1 µM
same,GI50,SW-620 colon,6.15 µM
same,TGI,SW-620 colon,41.2 µM
same,GI50,A498 renal,7.22 µM
same,TGI,A498 renal,57.7 µM
same,GI50,K-562 leukemia,4.3 µM
same,TGI,K-562 leukemia,> 100 µM
same,GI50,HOP-62 NSCLC,18 µM
same,TGI,HOP-62 NSCLC,73.4 µM
same,GI50,MALME-3M melanoma,1.58 µM
same,TGI,MALME-3M melanoma,8.87 µM
same,GI50,EKVX NSCLC,4.32 µM
same,TGI,EKVX NSCLC,19.9 µM
same,GI50,SK-OV-3 ovarian,21.4 µM
same,TGI,SK-OV-3 ovarian,84.6 µM
same,GI50,LOX IMVI melanoma,7.92 µM
same,TGI,LOX IMVI melanoma,24.5 µM
same,GI50,MCF7 breast,5.65 µM
same,TGI,MCF7 breast,75.9 µM
same,GI50,HT29 colon,7.61 µM
same,TGI,HT29 colon,23.6 µM
same,GI50,SR leukemia,2.95 µM
same,TGI,SR leukemia,22.6 µM
same,GI50,DU-145 prostate,8.57 µM
same,TGI,DU-145 prostate,32.4 µM
same,GI50,SNB-75 CNS,5.58 µM
same,TGI,SNB-75 CNS,19.7 µM
same,GI50,OVCAR-5 ovarian,39 µM
same,TGI,OVCAR-5 ovarian,> 100 µM
same,GI50,RPMI-8226 leukemia,1.89 µM
same,TGI,RPMI-8226 leukemia,7.26 µM
same,GI50,SK-MEL-2 melanoma,10.1 µM
same,TGI,SK-MEL-2 melanoma,32.6 µM
same,GI50,NCI-H23 lung,4.06 µM
same,TGI,NCI-H23 lung,38.4 µM
same,GI50,MDA-MB-231 breast,11 µM
same,TGI,MDA-MB-231 breast,76.9 µM
same,GI50,SN12C renal,8.82 µM
same,TGI,SN12C renal,> 100 µM
